Assay in all cases: relative viability (nuclei count vs DMSO), 5 days (fraction); higher = more cells survive
Compound in the experiment “Sulindac + OSI-027”: CC1=C(CC(=O)O)c2cc(F)ccc2/C1=C\c1ccc([S+](C)[O-])cc1 [Sulindac] + COc1cccc2cc(-c3nc([C@H]4CC[C@H](C(=O)O)CC4)n4ncnc(N)c34)[nH]c12 [OSI-027] (partner 0.5 µM)
The gist of the method: (§1)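 Lung cancer cell lines in 1536-well plates were dosed by pin tool the day after seeding, either with one drug alone or with a fixed anchor-drug dose plus five library-drug doses (not always all listed) in √10 steps. After 5 days, cells were fixed and their nuclei stained in one step (final 0.05% Triton X-100, 1% formaldehyde, 1 ug/ml Hoechst), then counted on 4× images. Relative viability is the nuclei count in treated wells divided by that in vehicle wells. Values are medians of duplicate plates.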

Compound in experiment [1]: CN[C@@H]1C[C@H]2O[C@@](C)([C@@H]1OC)n1c3ccccc3c3c4c(c5c6ccccc6n2c5c31)C(=O)NC4 [Staurosporine] + CS(=O)(=O)CCNCc1ccc(-c2ccc3ncnc(Nc4ccc(OCc5cccc(F)c5)c(Cl)c4)c3c2)o1 [Lapatinib] (partner 2 µM)
A digest of the protocol: as §1

Compound in experiment [2]: O=c1[nH]cc(F)c(=O)[nH]1 [5-Fluorouracil] + CCNC(=O)c1noc(-c2cc(C(C)C)c(O)cc2O)c1-c1ccc(CN2CCOCC2)cc1 [Luminespib] (partner 0.01 µM)
A digest of the protocol: as §1

Compound in experiment [3]: O=c1[nH]cc(F)c(=O)[nH]1 [5-Fluorouracil] + COc1cc2c(Oc3ccc(NC(=O)C4(C(=O)Nc5ccc(F)cc5)CC4)cc3F)ccnc2cc1OCCCN1CCOCC1 [Foretinib] (partner 0.25 µM)
The gist of the method: as §1

UMC-11: the relative viability with Sulindac + OSI-027 (first compound 0.08 µM) was 0.624; with Sulindac + OSI-027 (first compound 0.253 µM), 0.502; with Sulindac + OSI-027 (first compound 0.8 µM), 0.371; with Sulindac + OSI-027 (first compound 2.53 µM), 0.543; with Sulindac + OSI-027 (first compound 8 µM), 0.487; in experiment [1] (first compound 0.005 µM) it was 1.14. Further, the relative viability was 0.158 in experiment [1] (first compound 0.01581 µM); 0.408 in experiment [1] (first compound 0.05 µM); 0.141 in experiment [1] (first compound 0.1581 µM); 0.0855 in experiment [1] (first compound 0.5 µM); 0.954 in experiment [2] (first compound 0.02 µM); 0.68 in experiment [2] (first compound 0.2 µM). The relative viability in experiment [2] (first compound 0.6325 µM) amounted to 0.516; in experiment [2] (first compound 2 µM) it was 0.396; in experiment [3] (first compound 0.02 µM), 0.983; in experiment [3] (first compound 0.2 µM), 0.728; in experiment [3] (first compound 0.6325 µM), 0.518; in experiment [3] (first compound 2 µM), 0.396.

Source of the values: the supplement of paper PMC10307832.
